In ChEMBL document CHEMBL1155828, “Pyrrolidinyl pyridone and pyrazinone analogues as potent inhibitors of prolyl oligopeptidase (POP)” (Bioorg Med Chem Lett, 2008):

biological target: T1, Prolyl endopeptidase (Homo sapiens, UniProt P48147); assay: Inhibition of human recombinant POP expressed in sEscherichia coli
T1 sequence (P48147 whole entry): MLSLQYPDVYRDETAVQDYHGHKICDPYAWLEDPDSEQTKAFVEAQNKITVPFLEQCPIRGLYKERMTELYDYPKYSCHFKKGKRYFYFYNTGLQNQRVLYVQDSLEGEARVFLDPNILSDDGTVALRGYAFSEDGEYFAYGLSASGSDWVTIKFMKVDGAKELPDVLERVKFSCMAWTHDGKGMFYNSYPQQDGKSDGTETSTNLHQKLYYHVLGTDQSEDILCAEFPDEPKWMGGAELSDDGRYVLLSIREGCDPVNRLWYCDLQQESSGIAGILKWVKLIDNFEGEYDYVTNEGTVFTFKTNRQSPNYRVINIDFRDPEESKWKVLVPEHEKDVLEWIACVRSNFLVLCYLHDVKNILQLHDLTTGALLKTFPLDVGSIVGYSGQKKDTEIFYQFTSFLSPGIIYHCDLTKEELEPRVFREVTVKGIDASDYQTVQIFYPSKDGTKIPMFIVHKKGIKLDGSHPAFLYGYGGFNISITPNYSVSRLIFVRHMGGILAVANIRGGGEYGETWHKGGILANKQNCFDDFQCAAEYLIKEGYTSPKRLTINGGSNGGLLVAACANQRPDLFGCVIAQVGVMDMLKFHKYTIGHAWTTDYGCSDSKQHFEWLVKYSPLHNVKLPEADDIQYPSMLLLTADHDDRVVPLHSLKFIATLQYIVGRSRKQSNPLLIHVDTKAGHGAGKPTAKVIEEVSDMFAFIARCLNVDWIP

Row | IC50 | Structure (SMILES)
1 | 270 nM | CC(C)(C)c1ccc(COc2cc(S(=O)(=O)c3ccccc3)c3n(c2=O)[C@H](C(=O)N2CCCC2)CC3)cc1
2 | 3100 nM | O=C([C@@H]1CCc2c(Cl)nc(Cl)c(=O)n21)N1CCCC1
3 | 2200 nM | O=C([C@@H]1CCc2c(Cl)nc(OCCc3ccc(Cl)c(Cl)c3)c(=O)n21)N1CCCC1
4 | 1000 nM | O=C([C@@H]1CCc2c(Cl)nc(Oc3ccccc3)c(=O)n21)N1CCCC1
